# Experimental data as given in BindingDB's records for doi:10.1016/j.bmcl.2005.04.054 (Schering-Plough Research Institute, 2005).
# Assay: Inhibitory concentration against BaF3 cell line expressed recombinant human CCR3 using the chemotaxis assay
smiles,measurement,value
"O=C(NCC1CCCN(C2CCN(Cc3ccc(Cl)c(Cl)c3)CC2)C1)c1ccc2ncccc2c1 (stereo unspecified) [Quinoline-6-carboxylic acid [1'-(3,4-dichloro-benzyl)-[1,4']bipiperidinyl-3-ylmethyl]-amide]",IC50,136 nM
